# Experimental data: paper PMC6112376, “Comprehensive Analyses and Prioritization of Tox21 10K Chemicals Affecting Mitochondrial Function by in-Depth Mechanistic Studies” (Environmental Health Perspectives, 2018)
# Like-named read-outs stand apart in the source and are kept apart here.
# How the values were obtained:
# [1] = tested on: isolated rat liver mitochondria; experiment: Oxygen consumption, Clark-type oxygen electrode; type: biochemical
# HepG2 cells [2] = conditions: cited from earlier work
# [3] = tested on: p53 (p53-bla HCT-116 cells); experiment: p53 β-lactamase reporter gene assay; type: cell-based, human; conditions: Homo sapiens; 16 h incubation; mean±SD of three experiments
# HepG2 cells [4] = experiment: Intracellular ATP content (cell viability) assay; type: cell-based, human; conditions: Homo sapiens, HepG2, 40 h
# [5] = tested on: Caenorhabditis elegans strain PE255; experiment: In vivo C. elegans ATP status assay
# [6] = tested on: Nrf2/ARE (ARE-bla HepG2 cells); experiment: ARE β-lactamase reporter gene assay; type: cell-based, human; conditions: 16 h incubation; mean±SD of three experiments
# [7] = tested on: HeLa cells expressing YFP-Parkin; experiment: Parkin translocation assay; type: cell-based, human
# rat primary hepatocytes [8] = tested on: rat primary hepatocytes
# HepG2 cells [9] = experiment: ROS-Glo hydrogen peroxide (ROS) assay; type: cell-based, human
# HepG2 cells [10] = experiment: cells; conditions: Homo sapiens
# hNSC = experiment: MMP assay in human neural stem cells (hNSC); type: cell-based; conditions: Homo sapiens, Neural stem cell, 1 h, read-out: hNSC IC50 (MMP)
# rat primary hepatocytes [11] = experiment: MMP assay in rat primary hepatocytes; conditions: Rattus norvegicus, Hepatocyte, 1 h
# [12] = tested on: Caenorhabditis elegans (Bristol N2); experiment: C. elegans larval development and growth assay
smiles,measurement,setting,value
"O=C(Nc1ccc([N+](=O)[O-])cc1Cl)c1cc(Cl)ccc1O [Niclosamide, reference compound]",Potential Mechanism,[1],"Uncoupler at low concentrations (0.064-0.16 µM), and Uncoupler + inhibitor at high concentrations (0.8-100 µM)"
same,"I-ADP, % of control (O2 consumption rate)",[1]; 0.00128 µM,85 (30.5) % of control
same,"I-sub, % of control (O2 consumption rate)",[1]; 0.00128 µM,109 (10.5) % of control
same,"II-ADP, % of control (O2 consumption rate)",[1]; 0.00128 µM,92 (49.0) % of control
same,"II-sub, % of control (O2 consumption rate)",[1]; 0.00128 µM,108 (17.7) % of control
same,"I-ADP, % of control (O2 consumption rate)",[1]; 0.0064 µM,88 (31.4) % of control
same,"I-sub, % of control (O2 consumption rate)",[1]; 0.0064 µM,125 (12.0) % of control
same,"II-ADP, % of control (O2 consumption rate)",[1]; 0.0064 µM,87 (46.4) % of control
same,"II-sub, % of control (O2 consumption rate)",[1]; 0.0064 µM,109 (17.9) % of control
same,"I-ADP, % of control (O2 consumption rate)",[1]; 0.032 µM,103 (36.6) % of control
same,"I-sub, % of control (O2 consumption rate)",[1]; 0.032 µM,192 (18.4) % of control
same,"II-ADP, % of control (O2 consumption rate)",[1]; 0.032 µM,89 (47.7) % of control
same,"II-sub, % of control (O2 consumption rate)",[1]; 0.032 µM,132 (21.7) % of control
same,"I-ADP, % of control (O2 consumption rate)",[1]; 0.16 µM,126 (45.0) % of control
same,"I-sub, % of control (O2 consumption rate)",[1]; 0.16 µM,419 (40.2) % of control
same,"II-ADP, % of control (O2 consumption rate)",[1]; 0.16 µM,92 (49.0) % of control
same,"II-sub, % of control (O2 consumption rate)",[1]; 0.16 µM,230 (37.8) % of control
same,"I-ADP, % of control (O2 consumption rate)",[1]; 0.8 µM,85 (30.2) % of control
same,"I-sub, % of control (O2 consumption rate)",[1]; 0.8 µM,308 (29.6) % of control
same,"II-ADP, % of control (O2 consumption rate)",[1]; 0.8 µM,53 (28.1) % of control
same,"II-sub, % of control (O2 consumption rate)",[1]; 0.8 µM,204 (33.5) % of control
same,"I-ADP, % of control (O2 consumption rate)",[1]; 4 µM,70 (25.1) % of control
same,"I-sub, % of control (O2 consumption rate)",[1]; 4 µM,276 (26.5) % of control
same,"II-ADP, % of control (O2 consumption rate)",[1]; 4 µM,39 (21.1) % of control
same,"II-sub, % of control (O2 consumption rate)",[1]; 4 µM,147 (24.1) % of control
same,"I-ADP, % of control (O2 consumption rate)",[1]; 20 µM,79 (28.1) % of control
same,"I-sub, % of control (O2 consumption rate)",[1]; 20 µM,308 (29.6) % of control
same,"II-ADP, % of control (O2 consumption rate)",[1]; 20 µM,37 (19.6) % of control
same,"II-sub, % of control (O2 consumption rate)",[1]; 20 µM,145 (23.8) % of control
same,"I-ADP, % of control (O2 consumption rate)",[1]; 100 µM,93 (42.6) % of control
same,"I-sub, % of control (O2 consumption rate)",[1]; 100 µM,296 (45.9) % of control
same,"II-ADP, % of control (O2 consumption rate)",[1]; 100 µM,44 (31.3) % of control
same,"II-sub, % of control (O2 consumption rate)",[1]; 100 µM,119 (37.3) % of control
same,MMP assays efficacy (%) qHTS-HepG2,HepG2 cells [2],-98±4%
same,IC50,"HepG2 cells [2]; read-out: MMP assays IC50 (µM), qHTS-HepG2",0.03 ± 0.01 µM
same,EC50,[3],0.58 ± 0.49 µM
same,IC50,"HepG2 cells [4]; read-out: ATP (HepG2, galactose) IC50",2.26 µM
same,IC50,"HepG2 cells [4]; read-out: ATP (HepG2, glucose) IC50",2.01 µM
same,LUM: mean difference in luminescence (ATP content) relative to plate controls,[5]; 0.5 µM,0.1961
same,LUM: mean difference in luminescence (ATP content) relative to plate controls,[5]; 1 µM,0.1905
same,LUM: mean difference in luminescence (ATP content) relative to plate controls,[5]; 5 µM,0.2783
same,LUM: mean difference in luminescence (ATP content) relative to plate controls,[5]; 10 µM,0.1333
same,LUM: mean difference in luminescence (ATP content) relative to plate controls,[5]; 25 µM,0.2438
same,LUM: mean difference in luminescence (ATP content) relative to plate controls,[5]; 50 µM,0.3
same,LUM: mean difference in luminescence (ATP content) relative to plate controls,[5]; 75 µM,0.12
same,LUM: mean difference in luminescence (ATP content) relative to plate controls,[5]; 100 µM,0.1413
same,ARE (HepG2) EC50,[6],Inactive
same,Parkin recruitment,[7],Active
same,MMP assays efficacy (%) Rat Hepatocytes,rat primary hepatocytes [8],-112±30%
same,Rat hepatocytes (efficacy) (MMP),rat primary hepatocytes [8],1.36±0.16 ( −107±13.5 ) %
same,ROS (HepG2) EC50,HepG2 cells [9],Inactive
same,IC50,"HepG2 cells [10]; HepG2, 1 h, read-out: HepG2 IC50 Galactose (MMP)",1.47 µM
same,IC50,"HepG2 cells [10]; HepG2, 1 h, read-out: HepG2 IC50 Glucose (MMP)",0.87 µM
same,IC50,"HepG2 cells [10]; HepG2, read-out: IC50 in HepG2 cells (MMP, tier-one retest)",0.1 µM
same,Emax,"HepG2 cells [10]; HepG2, read-out: MMP assays efficacy (%) HepG2",87%
same,IC50,hNSC,0.42 µM
same,IC50,"rat primary hepatocytes [11]; read-out: IC50 in rat primary hepatocytes (MMP, tier-one retest)",0.44 µM
same,IC50,rat primary hepatocytes [11]; read-out: Rat hepatocytes IC50 (MMP),1.36 µM
same,EXT: mean difference in nematode size relative to plate controls,[12]; 0.5 µM,0.005018
same,EXT: mean difference in nematode size relative to plate controls,[12]; 1 µM,-0.03083
same,EXT: mean difference in nematode size relative to plate controls,[12]; 5 µM,-0.00657
same,EXT: mean difference in nematode size relative to plate controls,[12]; 10 µM,0.2753
same,EXT: mean difference in nematode size relative to plate controls,[12]; 25 µM,0.1226
same,EXT: mean difference in nematode size relative to plate controls,[12]; 50 µM,0.2162
